Reference: patent publication US9751881B2, “Inhibitors of the renal outer medullary potassium channel” (Merck Sharp & Dohme Corp., priority 2013, dated 2017)
Structures can show the parent of a compound that is named as a salt.

Molecular target: hROMK (hKir1.1) (Homo sapiens (Human), UniProt P48048)
Assay: Thallium Flux Assay (ROMK channel functional thallium flux, FLIPR-Tetra)
Assay type: cell-based
Settings: HEK293 cells stably expressing hROMK (hKir1.1); unit not given in Table 4 (IC50 potencies less than 1 μM); read-out: ROMK TI IC50
Method in brief: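 HEK293 cells stably expressing hROMK, FluxOR dye-loaded 90 min, then compound 30 min at room temperature. Normalised to 3 μM reference ROMK inhibitor as % fluorescence change.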

Chain of hROMK (hKir1.1) (P48048 whole entry): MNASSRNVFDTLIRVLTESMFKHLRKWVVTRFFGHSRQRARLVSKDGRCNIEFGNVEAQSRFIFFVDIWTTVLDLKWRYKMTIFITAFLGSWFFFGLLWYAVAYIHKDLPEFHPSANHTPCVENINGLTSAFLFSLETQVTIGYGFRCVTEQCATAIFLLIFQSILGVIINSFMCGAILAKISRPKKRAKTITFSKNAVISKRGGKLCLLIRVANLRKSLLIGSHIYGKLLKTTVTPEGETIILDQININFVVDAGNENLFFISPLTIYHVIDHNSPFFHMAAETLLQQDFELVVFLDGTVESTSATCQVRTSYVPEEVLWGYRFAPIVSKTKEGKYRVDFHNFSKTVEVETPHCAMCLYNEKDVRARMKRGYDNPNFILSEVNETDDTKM

| Compound | IC50 [nM] |
| --- | --- |
| Cc1c([C@@H](O)CN2CCC3(CC2)CCN(c2ccnc(-c4ccoc4)n2)C3=O)ccc2c1COC2=O [Example 115, (R)-2-(2-(furan-3-yl)pyrimidin-4-yl)-8-(2-hydroxy-2-(4-methyl-1-oxo-1,3-dihydroisobenzofuran-5-yl)ethyl)-2,8-diazaspiro[4.5]decan-1-one] | 286 |
| Cc1c([C@@H](O)CN2CCC3(CC2)CCN(c2cc(C#N)ccc2F)C3)ccc2c1COC2=O [Example 84] | 255 |
| COc1ccc(C#N)cc1N1CCC2(CCN(C[C@H](O)c3ccc4c(c3C)COC4=O)CC2)C1 [Example 85] | 234 |
| CCS(=O)(=O)c1cnc(N2CC3(CCN(C[C@H](O)c4ccc5c(c4C)COC5=O)CC3)OC2=O)cn1 [Example 93, (R)-3-(5-(Ethylsulfonyl)pyrazin-2-yl)-8-(2-hydroxy-2-(4-methyl-1-oxo-1,3-dihydroisobenzofuran-5-yl)ethyl)-1-oxa-3,8-diazaspiro[4.5]decan-2-one] | 148 |
| Cc1c([C@@H](O)CN2CCC3(CC2)CN(c2ccc(S(C)(=O)=O)cn2)C(=O)O3)ccc2c1COC2=O [Example 91, (R)-8-(2-hydroxy-2-(4-methyl-1-oxo-1,3-dihydroisobenzofuran-5-yl)ethyl)-3-(5-(methylsulfonyl)pyridin-2-yl)-1-oxa-3,8-diazaspiro[4.5]decan-2-one] | 208 |
| Cc1c([C@@H](O)CN2CCC3(CC2)CN(c2ccc(S(C)(=O)=O)nc2)C3)ccc2c1COC2=O [Example 46, (R)-5-(1-Hydroxy-2-(2-(6-(methylsulfonyl)pyridin-3-yl)-2,7-diazaspiro[3.5]nonan-7-yl)ethyl)-4-methylisobenzofuran-1(3H)-one] | 256 |
| Cc1c([C@@H](O)CN2CCC3(CC2)CN(c2cnc(S(C)(=O)=O)cn2)C3)ccc2c1COC2=O [Example 49, (R)-5-(1-Hydroxy-2-(2-(5-(methylsulfonyl)pyrazin-2-yl)-2,7-diazaspiro[3.5]nonan-7-yl)ethyl)-4-methylisobenzofuran-1(3H)-one] | 118 |
| Cc1c([C@@H](O)CN2CCC3(CC2)CC(=O)N(c2ccc(-n4cnnn4)nc2)C3)ccc2c1COC2=O [Example 72, 8-[(2R)-2-Hydroxy-2-(4-methyl-1-oxo-1,3-dihydro-2-benzofuran-5-yl)ethyl]-2-[6-(1H-tetrazol-1-yl)pyridin-3-yl]-2,8-diazaspiro[4.5]decan-3-one hydrochloride] | 100 |
| Cc1c([C@@H](O)CN2CCC3(CC2)CCN(c2ccc(S(C)(=O)=O)nc2)CC3)ccc2c1COC2=O [Example 103, (R)-5-(1-hydroxy-2-(9-(6-(methylsulfonyl)148yridine-3-yl)-3,9-diazaspiro[5.5]undecan-3-yl)ethyl)-4-methylisobenzofuran-1(3H)-one] | 563 |
| Cc1c([C@@H](O)CN2CCC3(CC2)CC(=O)N(c2ccc(-n4cnnn4)c(F)c2)C3)ccc2c1COC2=O [Example 69, 2-[3-Fluoro-4-(1H-tetrazol-1-yl)phenyl]-8-[(2R)-2-hydroxy-2-(4-methyl-1-oxo-1,3-dihydro-2-benzofuran-5-yl)ethyl]-2,8-diazaspiro[4.5]decan-3-one hydrochloride] | 173 |
| Cc1c([C@@H](O)CN2CCC3(CC2)CCN(c2nnc(S(C)(=O)=O)s2)C3)ccc2c1COC2=O [Example 62, 5-[(1R)-1-hydroxy-2-{2-[5-(methylsulfonyl)-1,3,4-thiadiazol-2-yl]-2,8-diazaspiro[4.5]dec-8-yl}ethyl]-4-methyl-2-benzofuran-1(3H)-one hydrochloride] | 210 |
| Cc1c([C@@H](O)CN2CCC3(CC2)CCN(c2ccc(C#N)nn2)C3)ccc2c1COC2=O [Example 18, (R)-6-(8-(2-Hydroxy-2-(4-methyl-1-oxo-1,3-dihydroisobenzofuran-5-yl)ethyl)-2,8-diazaspiro[4.5]decan-2-yl)pyridazine-3-carbonitrile] | 156 |

Stronger by IC50, values ahead:

| IC50 [nM] | Compound |
| --- | --- |
| 82.2 | Cc1c([C@@H](O)CN2CCC3(CC2)CC(=O)N(c2ccc(S(C)(=O)=O)cc2)C3)ccc2c1COC2=O [Example 74, 8-[(2R)-2-Hydroxy-2-(4-methyl-1-oxo-1,3-dihydro-2-benzofuran-5-yl)ethyl]-2-[4-(methylsulfonyl)phenyl]-2,8-diazaspiro[4.5]decan-3-one hydrochloride] |
| 31.4 | Cc1cc2c(cc1C(O)CN1CCC3(CC1)CCN(c1ccc(C#N)cn1)C3)COC2=O (single isomer, unassigned) [Example 24B, 6-(8-(2-Hydroxy-2-(6-methyl-1-oxo-1,3-dihydroisobenzofuran-5-yl)ethyl)-2,8-diazaspiro[4.5]decan-2-yl)nicotinonitrile] |
| 86 | Cc1c([C@@H](O)CN2CCC3(CC2)CCN(c2ccc(S(C)(=O)=O)cn2)C3=O)ccc2c1COC2=O [Example 96, (R)-8-(2-Hydroxy-2-(4-methyl-1-oxo-1,3-dihydroisobenzofuran-5-yl)ethyl)-2-(5-(methylsulfonyl)pyridin-2-yl)-2,8-diazaspiro[4.5]decan-1-one] |
| 32.9 | COc1cc(N2CC3(CCN(C[C@H](O)c4ccc5c(c4C)COC5=O)CC3)CC2=O)ncc1C#N [Example 59, (R)-6-(8-(2-Hydroxy-2-(4-methyl-1-oxo-1,3-dihydroisobenzofuran-5-yl)ethyl)-3-oxo-2,8-diazaspiro[4.5]decan-2-yl)-4-methoxynicotinonitrile] |
| 15 | Cc1c([C@@H](O)CN2CCC3(CC2)CC(=O)N(c2ccc(C#N)cc2)C3)ccc2c1COC2=O [Example 14, (R)-4-(8-(2-Hydroxy-2-(4-methyl-1-oxo-1,3-dihydroisobenzofuran-5-yl)ethyl)-3-oxo-2,8-diazaspiro[4.5]decan-2-yl)benzonitrile] |
| 26 | Cc1c([C@@H](O)CN2CCC3(CC2)CCN(c2cc(C#N)ccn2)C3)ccc2c1COC2=O [Example 13, (R)-2-(8-(2-Hydroxy-2-(4-methyl-1-oxo-1,3-dihydroisobenzofuran-5-yl)ethyl)-2,8-diazaspiro[4.5]decan-2-yl)isonicotinonitrile] |
| 51 | COc1cc(N2CC3(CCN(C[C@H](O)c4ccc5c(c4C)COC5=O)CC3)CC2=O)ccc1C#N [Example 16, (R)-4-(8-(2-Hydroxy-2-(4-methyl-1-oxo-1,3-dihydroisobenzofuran-5-yl)ethyl)-3-oxo-2,8-diazaspiro[4.5]decan-2-yl)-2-methoxybenzonitrile] |
| 17.6 | Cc1cc2c(cc1C(O)CN1CCC3(CC1)CCN(c1ccc(C#N)cn1)C3)COC2=O (single isomer, unassigned) [Example 24A, 6-(8-(2-Hydroxy-2-(6-methyl-1-oxo-1,3-dihydroisobenzofuran-5-yl)ethyl)-2,8-diazaspiro[4.5]decan-2-yl)nicotinonitrile] |
| 49.4 | COc1cc(N2CCC3(CCN(C[C@H](O)c4ccc5c(c4C)COC5=O)CC3)C2=O)ncc1C#N [Example 58, (R)-6-(8-(2-Hydroxy-2-(4-methyl-1-oxo-1,3-dihydroisobenzofuran-5-yl)ethyl)-1-oxo-2,8-diazaspiro[4.5]decan-2-yl)-4-methoxynicotinonitrile] |
| 92.5 | Cc1c([C@@H](O)CN2CCC3(CC2)CC(=O)N(c2ccc(-n4cnnn4)cn2)C3)ccc2c1COC2=O [Example 6, (R)-2-(5-(1H-tetrazol-1-yl)pyridin-2-yl)-8-(2-hydroxy-2-(4-methyl-1-oxo-1,3-dihydroisobenzofuran-5-yl)ethyl)-2,8-diazaspiro[4.5]decan-3-one] |
| 57 | Cc1c([C@@H](O)CN2CCC3(CC2)CCN(c2ncc(-n4cnnn4)cn2)C3)ccc2c1COC2=O [Example 15, (R)-5-(2-(2-(5-(1H-tetrazol-1-yl)pyrimidin-2-yl)-2,8-diazaspiro[4.5]decan-8-yl)-1-hydroxyethyl)-4-methylisobenzofuran-1(3H)-one] |
| 87.5 | Cc1c([C@@H](O)CN2CCC3(CC2)CC(=O)N(c2ncc(S(C)(=O)=O)s2)C3)ccc2c1COC2=O [Example 37, (R)-8-(2-Hydroxy-2-(4-methyl-1-oxo-1,3-dihydroisobenzofuran-5-yl)ethyl)-2-(5-(methylsulfonyl)thiazol-2-yl)-2,8-diazaspiro[4.5]decan-3-one] |
| 54.4 | Cc1c([C@@H](O)CN2CCC3(CC2)CCN(c2ccnc(C#N)c2)C3)ccc2c1COC2=O [Example 60, (R)-4-(8-(2-Hydroxy-2-(4-methyl-1-oxo-1,3-dihydroisobenzofuran-5-yl)ethyl)-2,8-diazaspiro[4.5]decan-2-yl)picolinonitrile] |
| 32.8 | COc1cc(N2CCC3(CCN(C[C@H](O)c4ccc5c(c4C)COC5=O)CC3)C2)ncc1C#N [Example 82] |
| 61.3 | CN[C@@H](CN1CCC2(CC1)CCN(c1ccc(C#N)cn1)C2)c1ccc2c(c1C)COC2=O [Example 77, (R)-6-(8-(2-(4-methyl-1-oxo-1,3-dihydroisobenzofuran-5-yl)-2-(methylamino)ethyl)-2,8-diazaspiro[4.5]decan-2-yl)nicotinonitrile] |
